Structures are written as SMILES.

The data set can be described thus: solvent given as SMILES.

Consider `CN(C)c1ccc2c(c1)[Si](C)(C)C1=CC(=[N+](C)C)C=CC1=C2C#Cc1ccccc1`, for which the emission maximum by setting is: (in CO) 738 nm; (in O) 736 nm.
For `CN1C(=CC2=C([S-])C(=CC3=[N+](C)c4ccccc4C3(C)C)C2=O)C(C)(C)c2ccccc21`, for the setting “in ClC(Cl)Cl”, the emission maximum stood at 663 nm.
With `CCn1c(-c2ccc(-c3cccc4ccccc34)cc2)c(-c2ccc3ccccc3c2)c(-c2ccc3ccccc3c2)c1-c1ccc(-c2cccc3ccccc23)cc1`, the emission maximum (in CCOC(C)=O) was 429 nm.
For `COc1ccc(-c2c3ccccc3c(-c3ccc(OC)cc3)c3cc4ccccc4cc23)cc1`, the emission maximum (in ClCCl) amounted to 511 nm.
`CCCCCCCCCCCCC(CCCCCCCCCC)Cn1c2cc(/C=C/C=C(C#N)C#N)c3cccc4c5cccc6c(/C=C/C=C(C#N)C#N)cc1c(c65)c2c34` (stereo not given) yielded an emission maximum (in C1CCCCC1) of 648 nm, an emission maximum (in CC#N) of 702 nm, an emission maximum (in Cc1ccccc1) of 668 nm and an emission maximum (in ClCCl) of 697 nm.
Compound `c1ccc(-c2nnc(-c3ccccc3)n2-c2ccc(N3c4ccccc4N(c4ccccc4)c4ccccc43)cc2)cc1` came in with an emission maximum (in Cc1ccccc1) of 495 nm and an emission maximum (in c1cc(-n2c3ccccc3c3ccccc32)cc(-n2c3ccccc3c3ccccc32)c1) of 474 nm.
Turning to `Fc1ccccc1-c1nc2sc3ccccc3c2s1`, for the setting “in CS(C)=O”, the emission maximum is recorded as 407 nm.
On to `N#Cc1c(-n2c3ccc(Br)cc3c3cc(Br)ccc32)c(C#N)c(-n2c3ccc(Br)cc3c3cc(Br)ccc32)c(-n2c3ccc(Br)cc3c3cc(Br)ccc32)c1-n1c2ccc(Br)cc2c2cc(Br)ccc21`, for which the emission maximum (in Cc1ccccc1) was found to be 521 nm.
With `COc1ccc(-c2nc(-c3ccccc3)c(N(c3ccccc3)c3ccccc3)s2)cc1`, the emission maximum (in ClC(Cl)Cl) was determined as 457 nm.
As to `CCCCCCCCCCCCOc1ccc(C#Cc2ccc(C#Cc3ccc(OCCCCCCCCCCCC)c(OCCCCCCCCCCCC)c3)c3nc4c5ccccc5c5ccccc5c4nc23)cc1OCCCCCCCCCCCC`, the emission maximum was 558 nm (in C1CCOC1), 541 nm (in Cc1ccccc1) and 566 nm (in ClCCl).
In turn, `CCCCCCN1C(=O)c2cccc3c(-c4ccc(-c5cc(-c6ccc(C)cc6)n(-c6ccccc6)n5)s4)ccc(c23)C1=O` yielded an emission maximum (in ClCCl) of 521 nm.
As for `CC1=CC2=Nc3nc(C)[n+](C)cc3CN2C=C1`, the emission maximum is, setting by setting: (in CC#N) 432 nm; (in CCO) 433 nm; (in O) 426 nm.
Consider `COc1cc2c(cc1-c1ccc(C(F)(F)F)cc1)Cc1c3c(c4c(c1-2)-c1cc(OC)c(-c2ccc(C(F)(F)F)cc2)cc1C4)C(=O)N(CCC(C)C)C3=O`, for which the emission maximum (in C1CCOC1) was found to be 458 nm.
Take `CCOC(=O)CCCCCn1c2ccc(N)cc2c(=O)c2cc(N)ccc21`: under “in O”, the emission maximum stood at 547 nm.
For `COc1ccc2oc(-c3cc4cc(OC)ccc4oc3=O)cc2c1`, the emission maximum reads like this: (in CC#N) 480 nm; (in CCOC(C)=O) 443 nm; (in CS(C)=O) 484 nm; (in Cc1ccccc1) 446 nm.
`C(=C\c1nc2ccccc2s1)/c1ccccc1`: the emission maximum (in C1CCCCC1) was found to be 390 nm and the emission maximum (in CO) turned out to be 400 nm.
In the case of `Cc1nc2c(ccc3c2sc(/C=C/c2ccc(N(C)C)cc2)[n+]3C)s1`, the emission maximum reads like this: (in CO) 600 nm; (in ClC(Cl)Cl) 603 nm.
Consider `F[B-]1(F)n2c(cc(Br)c2Br)C(c2ccccc2)=C2C=C(Br)C(c3ccc[nH]3)=[N+]21`, for which the emission maximum (in ClC(Cl)Cl) worked out at 642 nm.
In the case of `CCOC(=O)C1=C(N)n2c(=O)c3ccccc3c(=O)n2C1c1ccc([N+](=O)[O-])cc1` (stereo not given), the emission maximum (in CS(C)=O) is reported as 510 nm.
On to `CCC1=C(C)C2C(c3ccc(-c4ccc(-c5nc6c7ccccc7c7ccccc7c6n5-c5ccc(C(C)(C)C)cc5)cc4)cc3)c3c(C)c(CC)c(C)n3[B-](F)(F)[N+]2=C1C` (stereo not given), for which, under “in ClC(Cl)Cl”, the emission maximum turned out to be 556 nm.
`c1ccc(-c2cc(-c3ccccc3)cc(-c3ccc4c(c3)C3(c5cc(-c6cc(-c7ccccc7)cc(-c7ccccc7)c6)ccc5-4)c4ccccc4-c4c3c3c5ccccc5ccc3c3ccccc43)c2)cc1` returned an emission maximum (in C1CCOC1) of 420 nm.

These data come from the Deep4Chem optical property database.
